Data published in patent publication US5525627A, “Esters of acyl carnitines with long-chain aliphatic alcohols and pharmaceutical compositions containing same having antimycotic activity” (Sigma-Tau Industrie Farmaceutiche Riunite S.p.A., priority 1992, dated 1996).
Like-named read-outs stand apart in the source and are kept apart here.

Legend:
Candida albicans (562) = assay: MIC for yeast and yeast-like strains; assay type: cell-based; settings: 48 hours, 35° C., read-out: Minimal Inhibitory Concentration (MIC)
Description: (§1) The following strains were used (the number of strains is in brackets): Candida (13); Criptococcus (2); Saccharormyces (1); Torulopsis (1).
(§2) Yeast Nitrogen Base supplemented with 0.15% asparagine and 1.0% glucose (as carbon source) was the medium utilized in the assays.
(§3) This medium was buffered with 0.165 M 2-(N-morpholino) propane sulfonic acid (MOPS), a non-chelating buffer. […]
(§4) The inoculum was prepared from an overnight broth culture (a 48-hour culture only for Cryptococcus) in Sabouraud broth and appropriately diluted to yield a final suspension containing approximately 5.0×10^6 Colony Forming Units per ml (CFU/ml), when compared to the Mc Farland's standard control (BRAY W. E., Clinical Laboratory Methods, 5th Ed. C. V. MOSBY, St. Louis, Mo, 1957).
(§5) After further diluting (1:50), a […] volume of such fungal suspensions and an equal volume of the substance solutions were distributed into each well of a microtiter plate (96 wells, round bottom). Such a procedure eventually allowed for an "in vitro" antimycotic activity assay utilizing final fungal inocula of approximately 5.0×10^4 CFU/ml.

Candida albicans (Ca 2) = assay: MIC for yeast and yeast-like strains; assay type: cell-based; settings: 48 hours, 35° C., read-out: Minimal Inhibitory Concentration (MIC)
Description: as §1, §2, §3, §4, §5

Candida krusei (ISS 1) = assay: MIC for yeast and yeast-like strains; assay type: cell-based; settings: Pichia kudriavzevii; 48 hours, 35° C.; read-out: Minimal Inhibitory Concentration (MIC)
Description: as §1, §2, §3, §4, §5

[1] = system: Candida tropicalis (5705); assay: MIC for yeast and yeast-like strains; assay type: cell-based; settings: 48 hours, 35° C., read-out: Minimal Inhibitory Concentration (MIC)
Description: as §1, §2, §3, §4, §5

[2] = system: Saccharomyces cerevisiae (ATCC 7752); assay: MIC for yeast and yeast-like strains; assay type: cell-based; settings: ATCC7752, 48 hours, 35° C., read-out: Minimal Inhibitory Concentration (MIC)
Description: as §1, §2, §3, §4, §5

yeast-like fungi = assay: MIC / MFC for yeast-like fungi, all strains; assay type: cell-based, Candida, Cryptococcus, Saccharomyces, Torulopsis; settings: read-out: Mean MIC values
Description: as §1, §2, §3, §4, §5
The minimal fungicidal concentration was evaluated by spot-transferring onto Petri dishes, containing Sabouraud agar, 0.01-ml volumes of all the samples showing no visible fungal growth.

[3] = system: Aspergillus fumigatus (ATCC 28212); assay: MIC for filamentous fungi; assay type: cell-based; settings: ATCC28212, read-out: Minimal Inhibitory Concentration (MIC)
Excerpt: (§6) The following strains were used (the number of strains is in brackets): Aspergillus (5); Fusarium (1); Mucor (1); Penicillium (1).
(§7) The tested substances were: ST 712, ST 722, ST 982, ST 983, ST 1000, ST 1001, ST 1032, ST 1033, ST 1034, ST 1036, ST 1037, ST 1038, ST 1050, ST 1051, ST 1052, ST 1053. The assay medium was the same as the one used in the previous study. The conidia from 72-hour cultures in Sabouraud agar, collected by washing with Sabouraud medium and Tween 80 (one drop of Tween per 10 ml of medium), were utilized as inoculum (5.0×10^4 CFU/ml).
(§8) The assay was performed using the same procedure as described for yeast-like fungi.
(§9) Also the evaluation of MIC and MFC was as reported previously.

[4] = system: Aspergillus niger (ATCC 16404); assay: MIC for filamentous fungi; assay type: cell-based; settings: ATCC16404, read-out: Minimal Inhibitory Concentration (MIC)
Excerpt: as §6, §7, §8, §9

Fusarium sp. (ISS 1) = assay: MIC for filamentous fungi; assay type: cell-based; settings: read-out: Minimal Inhibitory Concentration (MIC)
Excerpt: as §6, §7, §8, §9

Mucor mucedo (ATCC 7941) = assay: MIC for filamentous fungi; assay type: cell-based; settings: ATCC7941, read-out: Minimal Inhibitory Concentration (MIC)
Excerpt: as §6, §7, §8, §9

Penicillium sp. (1302) = assay: MIC for filamentous fungi; assay type: cell-based; settings: read-out: Minimal Inhibitory Concentration (MIC)
Excerpt: as §6, §7, §8, §9

filamentous fungi = assay: MIC / MFC for filamentous fungi, all strains; assay type: cell-based, Aspergillus, Fusarium, Mucor, Penicillium; settings: read-out: Mean MIC values
Excerpt: as §6, §7, §8, §9

[5] = system: Epidermophyton floccosum (IHEM 3495); assay: MIC for dermatophytic fungi; assay type: cell-based; settings: 35° C., 96 hours, read-out: Minimal Inhibitory Concentration (MIC)
Description: (§10) The following strains were used: Trichophyton menthagrophytes ATCC 9533, Trichophyton rubrum IHEM 4274, Microsporum canis IHEM 3522, Epydermophyton floccosum IHEM 3495. The tested substances were: ST 722, ST 1033, ST 1037, ST 1050, ST 1051, ST 1052,. ST 1053.
(§11) The assay was performed following the same procedure described for the yeasts, by using 7-day fungi cultures grown at 30° C. in Potato Dextrose agar, and harvested with Sabouraud broth and Tween 80 (0.5%).
(§12) After washing with Yeast Nitrogen Base, supplemented with asparagine and glucose (as carbon source), the fungal suspension was fragmented using a tissue grinder until the largest clumps or aggregates were undetectable within the grinder. This fungal suspension was then appropriately diluted in YNB to yield a concentration of 2.0×10^5 infective particles/ml (small mycelium fragments, micro-and macroaleuriospores).
(§13) Volumes of 100 μl both of the fungal suspensions and substance solutions, two-fold serially diluted in assay medium, were distributed into each well of a microtiter plate (96 wells, round bottom), which was incubated at 35° C. for 96 hours.

[6] = system: Microsporum canis (IHEM 3522); assay: MIC for dermatophytic fungi; assay type: cell-based; settings: 35° C., 96 hours, read-out: Minimal Inhibitory Concentration (MIC)
Description: as §10, §11, §12, §13

[7] = system: Trichophyton menthagrophites (ATCC 9533); assay: MIC for dermatophytic fungi; assay type: cell-based; settings: ATCC9533, 35° C., 96 hours, read-out: Minimal Inhibitory Concentration (MIC)
Description: as §10, §11, §12, §13

[8] = system: Trichophyton rubrum (IHEM 4274); assay: MIC for dermatophytic fungi; assay type: cell-based; settings: 35° C., 96 hours, read-out: Minimal Inhibitory Concentration (MIC)
Description: as §10, §11, §12, §13

dermatophytic fungi = assay: MIC / MFC for dermatophytic fungi, all strains; assay type: cell-based, Trichophyton, Microsporum, Epidermophyton; settings: versus susceptible strains
Description: as §10, §11, §12, §13

Candida albicans (A 54) = assay: MIC for yeast and yeast-like strains; assay type: cell-based; settings: 48 hours, 35° C., read-out: Minimal Inhibitory Concentration (MIC)
Description: as §1, §2, §3, §4, §5

[9] = system: Cryptococcus neoformans (4711); assay: MIC for yeast and yeast-like strains; assay type: cell-based; settings: 48 hours, 35° C., read-out: Minimal Inhibitory Concentration (MIC)
Description: as §1, §2, §3, §4, §5

[10] = system: Torulopsis candida (D.S.); assay: MIC for yeast and yeast-like strains; assay type: cell-based; settings: Suzukiozyma candida; 48 hours, 35° C.; read-out: Minimal Inhibitory Concentration (MIC)
Description: as §1, §2, §3, §4, §5

Candida albicans (ISS 1) = assay: MIC for yeast and yeast-like strains; assay type: cell-based; settings: 48 hours, 35° C., read-out: Minimal Inhibitory Concentration (MIC)
Description: as §1, §2
(§14) This medium was buffered with 0.165 M 2-(N-morpholino) propane sulfonic acid (MOPS), a non-chelating buffer.
(§15) Antimicrob. Agents Cheroother. Aug. 34.8:1542-1545).
as §4, §5

Candida glabrata (ISS 1) = assay: MIC for yeast and yeast-like strains; assay type: cell-based; settings: Nakaseomyces glabratus; 48 hours, 35° C.; read-out: Minimal Inhibitory Concentration (MIC)
Description: as §1, §2, §14, §15, §4, §5

[11] = system: Candida guilliermondii (ISS 1); assay: MIC for yeast and yeast-like strains; assay type: cell-based; settings: Meyerozyma guilliermondii; 48 hours, 35° C.; read-out: Minimal Inhibitory Concentration (MIC)
Description: as §1, §2, §14, §15, §4, §5

[12] = system: Candida parapsilosis (ISS 1); assay: MIC for yeast and yeast-like strains; assay type: cell-based; settings: Lodderomyces parapsilosis; 48 hours, 35° C.; read-out: Minimal Inhibitory Concentration (MIC)
Description: as §1, §2, §14, §15, §4, §5

[13] = system: Candida tropicalis (ISS 1); assay: MIC for yeast and yeast-like strains; assay type: cell-based; settings: 48 hours, 35° C., read-out: Minimal Inhibitory Concentration (MIC)
Description: as §1, §2, §14, §15, §4, §5

SMILES	MIC (Candida albicans (562))	MIC (Candida albicans (Ca 2))	MIC (Candida krusei (ISS 1))	MIC [1]	MIC [2]	MIC (yeast-like fungi; versus susceptible strains)	MIC [3]	MIC [4]	MIC (Fusarium sp. (ISS 1))	MIC (Mucor mucedo (ATCC 7941))	MIC (Penicillium sp. (1302))	MIC (filamentous fungi; versus susceptible strains)	MIC [5]	MIC [6]	MIC [7]	MIC [8]	MIC (dermatophytic fungi)	MIC (Candida albicans (A 54))	MIC [9]	MIC [10]	other results
CCCCCCCCCCCCCOC(=O)C[C@H](C[N+](C)(C)C)OC(=O)CCCCC [ST 1052]	3.12 µg/mL	1.56 µg/mL	3.12 µg/mL	3.12 µg/mL	3.12 µg/mL	2.8 µg/mL	3.12 µg/mL	3.12 µg/mL	6.25 µg/mL	6.25 µg/mL	3.12 µg/mL	4.37 µg/mL	25 µg/mL	6.25 µg/mL	12.5 µg/mL	6.25 µg/mL	12.5 µg/mL	–	–	–	–
CCCCCCCCCCCOC(=O)C[C@H](C[N+](C)(C)C)OC(=O)CCCCCCCCCC [ST 982]	–	> 100 µg/mL	–	> 100 µg/mL	–	–	> 100 µg/mL	> 100 µg/mL	> 100 µg/mL	> 100 µg/mL	> 100 µg/mL	–	–	–	–	–	–	> 100 µg/mL	> 100 µg/mL	> 100 µg/mL	MIC (yeast-like fungi): > 100 µg/mL; MIC (filamentous fungi): > 100 µg/mL
CCCCCCCCCCCCCCCC(=O)O[C@H](CC(=O)OCCCCCCCCCCC)C[N+](C)(C)C [ST 983]	–	> 100 µg/mL	–	> 100 µg/mL	–	> 100 µg/mL	> 100 µg/mL	> 100 µg/mL	> 100 µg/mL	> 100 µg/mL	> 100 µg/mL	> 100 µg/mL	–	–	–	–	–	> 100 µg/mL	> 100 µg/mL	> 100 µg/mL	–
CCCCCCCCCCCCCOC(=O)C[C@H](C[N+](C)(C)C)OC(=O)CCCCCC [ST 1050]	6.25 µg/mL	3.12 µg/mL	3.12 µg/mL	6.25 µg/mL	3.12 µg/mL	4.37 µg/mL	6.25 µg/mL	6.25 µg/mL	6.25 µg/mL	12.5 µg/mL	3.12 µg/mL	6.85 µg/mL	50 µg/mL	12.5 µg/mL	12.5 µg/mL	6.25 µg/mL	20.3 µg/mL	–	–	–	–
CCCCCCCCCCCCCOC(=O)C[C@H](C[N+](C)(C)C)OC(=O)C(C)CCCC (stereo partly shown) [ST 1051]	3.12 µg/mL	1.56 µg/mL	3.12 µg/mL	3.12 µg/mL	3.12 µg/mL	2.8 µg/mL	3.12 µg/mL	6.25 µg/mL	6.25 µg/mL	6.25 µg/mL	3.12 µg/mL	6.87 µg/mL	25 µg/mL	12.5 µg/mL	12.5 µg/mL	6.25 µg/mL	14.1 µg/mL	–	–	–	–
CCCCCCCCCCCOC(=O)C[C@H](C[N+](C)(C)C)OC(=O)CCCCCCC [ST 1000]	–	1.56 µg/mL	1.56 µg/mL	–	–	4.21 µg/mL	3.12 µg/mL	3.12 µg/mL	3.12 µg/mL	6.25 µg/mL	3.12 µg/mL	3.76 µg/mL	–	–	–	–	–	6.25 µg/mL	1.56 µg/mL	6.25 µg/mL	MIC (Candida albicans (ISS 1)): 3.12 µg/mL; MIC (Candida glabrata (ISS 1)): 6.25 µg/mL; MIC [11]: 6.25 µg/mL; MIC [12]: 6.25 µg/mL; MIC [13]: 3.12 µg/mL
CCCCCCCCCCCCCOC(=O)C[C@H](C[N+](C)(C)C)OC(=O)CCCCCCC [ST 1053]	12.5 µg/mL	3.12 µg/mL	3.12 µg/mL	6.25 µg/mL	3.12 µg/mL	5.62 µg/mL	6.25 µg/mL	3.12 µg/mL	6.25 µg/mL	12.5 µg/mL	3.12 µg/mL	6.24 µg/mL	50 µg/mL	6.25 µg/mL	6.25 µg/mL	6.25 µg/mL	14.1 µg/mL	–	–	–	–
